Measurements: the supplement of paper PMC11061612

Columns and labels:
[1] = compound: C=CCn1c(=O)c2cnc(Nc3ccc(N4CCN(C)CC4)cc3)nc2n1-c1cccc(C(C)(C)O)n1 [AZD1775]; details: max 3 µM
How it was run: (§1)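 Cancer cell lines were plated in 1536-well plates in 7.5 μl of DMEM/F12 or RPMI with 10% FBS and kept 24 hours at 37°C and 5% CO2 before 72 hours of dosing, with final DMSO typically 0.2%. CellTiter-Glo 2.0 luminescence measured viability, scaled between blank-well and DMSO-well means. Dose responses were fitted to a two-parameter logistic curve with a non-linear mixed effects model. This fit gives the single-agent IC50.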

[2] = compound: CS(=O)(=O)CCNCc1ccc(-c2ccc3ncnc(Nc4ccc(OCc5cccc(F)c5)c(Cl)c4)c3c2)o1 [Lapatinib]; details: max 10 µM
How it was run: as §1

[3] = compound: COc1cc(Nc2ncc3c(n2)-c2ccc(Cl)cc2C(c2c(F)cccc2OC)=NC3)ccc1C(=O)O [Alisertib]; details: max 10 µM
How it was run: as §1

[4] = compound: COc1cc2ncnc(Nc3ccc(F)c(Cl)c3)c2cc1OCCCN1CCOCC1 [Gefitinib]; details: max 10 µM
How it was run: as §1

[5] = compound: CC1(C)CCC(CN2CCN(c3ccc(C(=O)NS(=O)(=O)c4ccc(NCC5CCOCC5)c([N+](=O)[O-])c4)c(Oc4cnc5[nH]ccc5c4)c3)CC2)=C(c2ccc(Cl)cc2)C1 [Venetoclax]; details: max 1 µM
How it was run: as §1

[6] = compound: COc1cccc2c1C(=O)c1c(O)c3c(c(O)c1C2=O)C[C@@](O)(C(=O)CO)C[C@@H]3O[C@H]1C[C@H](N)[C@H](O)[C@H](C)O1 [Doxorubicin]; details: max 1 µM
How it was run: as §1

[7] = compound: CC(C)n1c(=O)n(C)c2cnc3cc(F)c(-c4ccc(OCCCN5CCCCC5)nc4)cc3c21 [AZD1390]; details: max 0.3 µM
How it was run: as §1

[8] = compound: O=C(c1cc(Cc2n[nH]c(=O)c3ccccc23)ccc1F)N1CCN(C(=O)C2CC2)CC1 [Olaparib]; details: max 10 µM
How it was run: as §1

[9] = compound: CC(=O)Nc1cccc(-n2c(=O)n(C3CC3)c(=O)c3c(Nc4ccc(I)cc4F)n(C)c(=O)c(C)c32)c1 [Trametinib]; details: max 1 µM
How it was run: as §1

[10] = compound: C1CN(CCC1(C(=O)N[C@@H](CCO)C2=CC=C(C=C2)Cl)N)C3=NC=NC4=C3C=CN4 [Capivasertib]; details: max 10 µM
How it was run: as §1

[11] = compound: C[C@@H]1COCCN1C2=NC(=NC(=C2)C3(CC3)[S@](=N)(=O)C)C4=C5C=CNC5=NC=C4 [AZD6738]; details: max 10 µM
How it was run: as §1

[12] = compound: Cc1cc2ncnn2cc1Nc1ncc2c(n1)n(C1CCOCC1)c(=O)n2C [AZD7648]; details: max 10 µM
How it was run: as §1

[13] = compound: CCc1c2c(nc3ccc(O)cc13)-c1cc3c(c(=O)n1C2)COC(=O)[C@]3(O)CC [SN-38]; details: max 0.3 µM
How it was run: as §1

[14] = compound: COc1cccc(OCCCN)c1-c1cc(Nc2cnc(C#N)cn2)n[nH]1 [Prexasertib]; details: max 1 µM
How it was run: as §1

[15] = compound: CN(C)CCCOc1ccc(-c2ccc3ncc4c(c3c2)n(C2CCOCC2)c(=O)n4C)cn1 [AZD0156]; details: max 3 µM
How it was run: as §1

[16] = compound: Cc1c2c(nn1C)CSCc1cc(n(C)n1)CSc1cc(c3ccccc3c1)OCCCc1c(C(=O)O)n(C)c3c-2c(Cl)ccc13 [AZD5991]; details: max 1 µM
How it was run: as §1

[17] = compound: CC1=CN2[C@@H](C1)C=NC3=CC(=C(C=C3C2=O)OC)OCCCCCOC4=C(C=C5C(=C4)N=C[C@@H]6CC(=CN6C5=O)C)OC [SG3199]; details: max 0.001 µM
How it was run: as §1

[18] = compound: C[C@@H](Oc1cc(-c2cnn(C3CCNCC3)c2)cnc1N)c1c(Cl)ccc(F)c1Cl [Crizotinib]; details: max 10 µM
How it was run: as §1

[19] = compound: CC1=C(C(=CC=C1)Cl)NC(=O)C2=CN=C(S2)NC3=CC(=NC(=N3)C)N4CCN(CC4)CCO [Dasatinib]; details: max 2 µM
How it was run: as §1

[20] = compound: CC(=O)c1c(C)c2cnc(Nc3ccc(N4CCNCC4)cn3)nc2n(C2CCCC2)c1=O [Palbociclib]; details: max 10 µM
How it was run: as §1

[21] = compound: CN(CC[C@H](CSC1=CC=CC=C1)NC2=C(C=C(C=C2)S(=O)(=O)NC(=O)C3=CC=C(C=C3)N4CCC(CC4)[C@H](C5=CC=CC=C5C6=CC=C(C=C6)Cl)O)S(=O)(=O)C(F)(F)F)CCO [AZD4320]; details: max 1 µM
How it was run: as §1

[22] = compound: CCN(CCO)CCCOc1ccc2c(Nc3cc(CC(=O)Nc4cccc(F)c4)[nH]n3)ncnc2c1 [AZD2811]; details: max 1 µM
How it was run: as §1

[23] = compound: C[C@@H](Nc1cc(F)cc(F)c1)c1cc(C(=O)N(C)C)cc2c(=O)cc(N3CCOCC3)oc12 [AZD8186]; details: max 3 µM
How it was run: as §1

[24] = compound: COc1nnc2ccc(N3CCC(c4ccc(OCCN5CCN(C)C(=O)[C@H]5C)cc4)CC3)nn12 [AZD5153]; details: max 1 µM
How it was run: as §1

[25] = compound: Cc1nc(-c2cn3c(n2)-c2ccc(-c4cnn(C(C)(C)C(N)=O)c4)cc2OCC3)n(C(C)C)n1 [Taselisib]; details: max 10 µM
How it was run: as §1

[26] = compound: C[C@@H](c1ccc2nccn2c1)n1nnc2ncc(-c3cnn(C)c3)nc21 [Savolitinib]; details: max 1 µM
How it was run: as §1

[27] = compound: Cn1cnc2c(F)c(Nc3ccc(Br)cc3Cl)c(C(=O)NOCCO)cc21 [Selumetinib]; details: max 10 µM
How it was run: as §1

| Cell Line | IC50, cell viability 72 h [1] | IC50, cell viability 72 h [2] | IC50, cell viability 72 h [3] | IC50, cell viability 72 h [4] | IC50, cell viability 72 h [5] | IC50, cell viability 72 h [6] | IC50, cell viability 72 h [7] | IC50, cell viability 72 h [8] | IC50, cell viability 72 h [9] | IC50, cell viability 72 h [10] | IC50, cell viability 72 h [11] | IC50, cell viability 72 h [12] | IC50, cell viability 72 h [13] | IC50, cell viability 72 h [14] | IC50, cell viability 72 h [15] | IC50, cell viability 72 h [16] | IC50, cell viability 72 h [17] | IC50, cell viability 72 h [18] | IC50, cell viability 72 h [19] | IC50, cell viability 72 h [20] | IC50, cell viability 72 h [21] | IC50, cell viability 72 h [22] | IC50, cell viability 72 h [23] | IC50, cell viability 72 h [24] | IC50, cell viability 72 h [25] | IC50, cell viability 72 h [26] | IC50, cell viability 72 h [27] |
| --- | --- | --- | --- | --- | --- | --- | --- | --- | --- | --- | --- | --- | --- | --- | --- | --- | --- | --- | --- | --- | --- | --- | --- | --- | --- | --- | --- |
| ATN-1 (T-Lymphoblastic Leukemia) | 0.0601 µM | > 10 µM | 0.0401 µM | > 10 µM | > 1 µM | 0.0454 µM | > 0.3 µM | > 10 µM | > 1 µM | 2.02 µM | 0.664 µM | > 10 µM | 0.00553 µM | 0.00209 µM | > 3 µM | 0.109 µM | > 0.001 µM | 1.41 µM | 1.7 µM | 5.84 µM | 0.13 µM | 0.0188 µM | 2.2 µM | 0.482 µM | 0.083 µM | > 1 µM | > 10 µM |
| BT-474 (Breast Carcinoma) | > 3 µM | 2.54 µM | > 10 µM | > 10 µM | > 1 µM | > 1 µM | > 0.3 µM | > 10 µM | > 1 µM | > 10 µM | > 10 µM | > 10 µM | > 0.3 µM | > 1 µM | > 3 µM | > 1 µM | > 0.001 µM | > 10 µM | > 2 µM | > 10 µM | > 1 µM | > 1 µM | > 3 µM | > 1 µM | 0.779 µM | > 1 µM | > 10 µM |
| C2BBe1 (Colorectal Carcinoma) | 2.7 µM | > 10 µM | > 10 µM | > 10 µM | > 1 µM | > 1 µM | > 0.3 µM | > 10 µM | 0.818 µM | > 10 µM | > 10 µM | > 10 µM | > 0.3 µM | > 1 µM | > 3 µM | > 1 µM | > 0.001 µM | > 10 µM | > 2 µM | > 10 µM | > 1 µM | > 1 µM | > 3 µM | > 1 µM | 2.99 µM | > 1 µM | > 10 µM |
| DK-MG (Glioblastoma) | 2.15 µM | > 10 µM | > 10 µM | > 10 µM | > 1 µM | > 1 µM | > 0.3 µM | > 10 µM | 0.375 µM | > 10 µM | > 10 µM | > 10 µM | > 0.3 µM | > 1 µM | > 3 µM | > 1 µM | > 0.001 µM | 4.99 µM | > 2 µM | > 10 µM | > 1 µM | > 1 µM | 2.85 µM | 0.803 µM | > 10 µM | > 1 µM | > 10 µM |
| Daudi (Burkitt's Lymphoma) | 1.02 µM | > 10 µM | 0.884 µM | > 10 µM | > 1 µM | 0.173 µM | > 0.3 µM | > 10 µM | > 1 µM | > 10 µM | 3.88 µM | > 10 µM | 0.00852 µM | 0.0292 µM | > 3 µM | > 1 µM | > 0.001 µM | 5.56 µM | 0.627 µM | > 10 µM | > 1 µM | > 1 µM | > 3 µM | 0.243 µM | 8.26 µM | > 1 µM | > 10 µM |
| GRANTA-519 (B-Cell Non-Hodgkin's Lymphoma) | 0.55 µM | > 10 µM | > 10 µM | > 10 µM | > 1 µM | 0.869 µM | > 0.3 µM | > 10 µM | > 1 µM | > 10 µM | 1.95 µM | > 10 µM | 0.00406 µM | 0.0174 µM | > 3 µM | > 1 µM | > 0.001 µM | > 10 µM | > 2 µM | > 10 µM |  | > 1 µM | > 3 µM | > 1 µM | > 10 µM | > 1 µM | > 10 µM |
| HT-3 (Cervical Carcinoma) | 2.34 µM | > 10 µM | > 10 µM | > 10 µM | > 1 µM | 0.732 µM | > 0.3 µM | > 10 µM | > 1 µM | > 10 µM | > 10 µM | > 10 µM | 0.00856 µM | > 1 µM | > 3 µM | > 1 µM | > 0.001 µM | > 10 µM | > 2 µM | > 10 µM | > 1 µM | > 1 µM | > 3 µM | > 1 µM | > 10 µM | > 1 µM | > 10 µM |
| HT-144 (Melanoma) | 0.25 µM | 8.83 µM | > 10 µM | > 10 µM | > 1 µM | > 1 µM | > 0.3 µM | > 10 µM | 0.0179 µM | 5.45 µM | 3.48 µM | > 10 µM | 0.0681 µM | 0.139 µM | > 3 µM | 0.221 µM | > 0.001 µM | 4.71 µM | > 2 µM | > 10 µM | > 1 µM | > 1 µM | > 3 µM | 0.981 µM | 5.01 µM | > 1 µM | 0.632 µM |
